Experimental data: US8946215B2, “Hydroxy-substituted imidazo[1,2-a]pyridinecarboxamides and their use” (Bayer Pharma Aktiengesellschaft, priority 2012, dated 2015)
Where a name gives a salt, the structure may show the parent alone.

target: T1, recombinant guanylate cyclase reporter cell line (Rattus norvegicus, UniProt P19686+P20595); assay: Action on recombinant guanylate cyclase reporter cell line; assay type: cell-based; details: in some cases mean values obtained from individual determinations
T1 construct: expressed in transfected cells
T1 sequence (P20595 1-619): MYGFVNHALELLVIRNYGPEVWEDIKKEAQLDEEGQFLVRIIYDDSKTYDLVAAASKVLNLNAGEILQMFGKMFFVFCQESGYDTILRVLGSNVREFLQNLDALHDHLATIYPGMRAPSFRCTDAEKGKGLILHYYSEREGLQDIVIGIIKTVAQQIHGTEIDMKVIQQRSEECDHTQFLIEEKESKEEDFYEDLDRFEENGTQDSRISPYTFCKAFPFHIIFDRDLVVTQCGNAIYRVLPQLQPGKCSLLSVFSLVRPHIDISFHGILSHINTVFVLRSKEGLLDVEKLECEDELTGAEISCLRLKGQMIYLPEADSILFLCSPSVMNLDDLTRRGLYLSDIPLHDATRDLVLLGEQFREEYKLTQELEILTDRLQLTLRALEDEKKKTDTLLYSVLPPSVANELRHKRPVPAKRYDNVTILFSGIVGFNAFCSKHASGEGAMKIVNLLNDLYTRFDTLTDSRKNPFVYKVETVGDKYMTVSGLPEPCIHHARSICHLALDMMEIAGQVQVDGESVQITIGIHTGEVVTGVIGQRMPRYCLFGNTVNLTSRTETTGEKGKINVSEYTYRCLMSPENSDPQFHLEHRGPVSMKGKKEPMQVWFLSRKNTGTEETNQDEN
T1 sequence (P19686 1-690): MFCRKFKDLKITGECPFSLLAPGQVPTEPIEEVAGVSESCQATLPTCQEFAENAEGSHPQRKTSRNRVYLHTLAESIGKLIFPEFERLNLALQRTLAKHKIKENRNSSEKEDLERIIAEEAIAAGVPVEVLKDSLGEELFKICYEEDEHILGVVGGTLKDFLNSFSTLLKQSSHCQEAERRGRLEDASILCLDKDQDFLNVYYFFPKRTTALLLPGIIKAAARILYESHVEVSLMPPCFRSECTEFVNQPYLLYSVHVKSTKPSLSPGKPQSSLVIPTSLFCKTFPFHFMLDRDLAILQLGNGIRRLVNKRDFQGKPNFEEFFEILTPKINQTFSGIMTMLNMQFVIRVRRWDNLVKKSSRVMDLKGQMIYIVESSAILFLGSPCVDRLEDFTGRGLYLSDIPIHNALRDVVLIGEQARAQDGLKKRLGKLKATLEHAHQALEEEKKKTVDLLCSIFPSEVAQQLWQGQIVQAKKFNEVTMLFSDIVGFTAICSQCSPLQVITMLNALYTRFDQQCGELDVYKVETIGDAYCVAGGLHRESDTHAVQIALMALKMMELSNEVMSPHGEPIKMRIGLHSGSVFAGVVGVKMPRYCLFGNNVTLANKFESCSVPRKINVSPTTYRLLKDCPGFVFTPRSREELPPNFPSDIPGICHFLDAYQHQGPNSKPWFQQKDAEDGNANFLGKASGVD
Method: B-2. Action on Recombinant Guanylate Cyclase Reporter Cell Line
The cellular action of the compounds according to the invention is determined on a recombinant guanylate cyclase reporter cell line, as described in F. Wunder et al., Anal. Biochem. 339, 104-112 (2005).
Representative values (MEC=minimal effective concentration) for the compounds according to the invention are shown in the following table (in some cases as mean values obtained from individual determinations): […]

Row | SMILES | MEC (minimal effective concentration) [µM]
1 | Cc1nc2c(OCc3c(F)cccc3F)cccn2c1C(=O)NC(CO)COCC(C)C (racemic) [Example 163, rac-8-[(2,6-Difluorobenzyl)oxy]-N-(1-hydroxy-3-isobutoxypropan-2-yl)-2-methylimidazo[1,2-a]-pyridine-3-carboxamide] | 1.0
2 | Cc1cc(OCCC(C(F)(F)F)C(F)(F)F)c2nc(C)c(C(=O)NC(CCCC(F)(F)F)C(C)(C)O)n2c1 (racemic) [Example 170, rac-2,6-Dimethyl-N-(7,7,7-trifluoro-2-hydroxy-2-methylheptan-3-yl)-8-[4,4,4-trifluoro-3-(trifluoromethyl)butoxy]imidazo[1,2-a]pyridine-3-carboxamide] | 3.0
3 | CCC(O)CNC(=O)c1c(C)nc2c(OCCC(C(F)(F)F)C(F)(F)F)cc(C)cn12 (racemic) [Example 174, rac-N-(2-hydroxybutyl)-2,6-dimethyl-8-[4,4,4-trifluoro-3-(trifluoromethyl)butoxy]imidazo[1,2-a]pyridine-3-carboxamide] | 3.0
4 | Cc1cc(OCCC(C(F)(F)F)C(F)(F)F)c2nc(C)c(C(=O)NCC(O)c3ccc(Cl)cc3)n2c1 (racemic) [Example 175, rac-N-[2-(4-chlorophenyl)-2-hydroxyethyl]-2,6-dimethyl-8-[4,4,4-trifluoro-3-(trifluoromethyl)butoxy]imidazo[1,2-a]pyridine-3-carboxamide] | 3.0
5 | Cc1cc(OCC2CC(F)(F)C2)c2nc(C)c(C(=O)NC(CCCC(F)(F)F)C(C)(C)O)n2c1 (racemic) [Example 176, rac-8-[(3,3-Difluorocyclobutyl)methoxy]-2,6-dimethyl-N-(7,7,7-trifluoro-2-hydroxy-2-methylheptan-3-yl)imidazo[1,2-a]pyridine-3-carboxamide] | 3.0
6 | Cc1cc(OCc2ncccc2F)c2nc(C)c(C(=O)NC(CC(F)(F)F)C(C)(C)O)n2c1 (racemic) [Example 184, rac-8-[(3-fluoropyridin-2-yl)methoxy]-2,6-dimethyl-N-(1,1,1-trifluoro-4-hydroxy-4-methylpentan-3-yl)imidazo[1,2-a]pyridine-3-carboxamide (racemate)] | 1
7 | Cc1cc(OCc2ncccc2F)c2nc(C)c(C(=O)NC(CCC(F)(F)C(F)(F)F)C(C)(C)O)n2c1 (racemic) [Example 186, rac-8-[(3-fluoropyridin-2-yl)methoxy]-2,6-dimethyl-N-(6,6,7,7,7-pentafluoro-2-hydroxy-2-methylheptan-3-yl)imidazo[1,2-a]pyridine-3-carboxamide (racemate)] | 1
8 | Cc1nc2c(OCC3CCCCC3)cccn2c1C(=O)N[C@@H]1CCC[C@@H]1O (relative stereo) [Example 81, 8-(cyclohexylmethoxy)-N-[cis-2-hydroxycyclopentyl]-2-methylimidazo[1,2-a]-pyridine-3-carboxamide] | 0.65
9 | CCCCC(NC(=O)c1c(C)nc2c(OCCC(C)C)cc(C)cn12)C(C)(C)O (single isomer, unassigned) [Example 167, ent-N-(2-Hydroxy-2-methylheptan-3-yl)-2,6-dimethyl-8-(3-methylbutoxy)imidazo[1,2-a]pyridine-3-carboxamide] | 2.0
10 | Cc1cc(OCCC(C)C)c2nc(C)c(C(=O)NC(CCCC(F)(F)F)C(C)(C)O)n2c1 (single isomer, unassigned; ent-2) [Example 168, ent-2,6-Dimethyl-8-(3-methylbutoxy)-N-(7,7,7-trifluoro-2-hydroxy-2-methylheptan-3-yl)imidazo-[1,2-a]pyridine-3-carboxamide] | 3.0

Continued, values first:

Row | MEC (minimal effective concentration) [µM] | SMILES
11 | 1 | Cc1cc(OCc2ncccc2F)c2nc(C)c(C(=O)NC(CCCC(F)(F)F)C(C)(C)O)n2c1 (racemic) [Example 178, rac-8-[(3-fluoropyridin-2-yl)methoxy]-2,6-dimethyl-N-(7,7,7-trifluoro-2-hydroxy-2-methylheptan-3-yl)imidazo[1,2-a]pyridine-3-carboxamide trifluoroacetate]
12 | 1 | Cc1nc2c(OCc3ncccc3F)cccn2c1C(=O)NC(CCCC(F)(F)F)C(C)(C)O (racemic) [Example 179, rac-8-[(3-fluoropyridin-2-yl)methoxy]-2-methyl-N-(7,7,7-trifluoro-2-hydroxy-2-methylheptan-3-yl)imidazo(1,2-a]pyridine-3-carboxamide]
13 | 1 | Cc1nc2c(OCc3ncccc3F)cccn2c1C(=O)NC(CC(F)(F)F)C(C)(C)O (racemic) [Example 180, rac-8-[(3-Fluoropyridin-2-yl)methoxy]-2-methyl-N-(1,1,1-trifluoro-4-hydroxy-4-methylpentan-3-yl)imidazo[1,2-a]pyridine-3-carboxamide]
14 | 1 | Cc1cc(OCc2ncccc2F)c2nc(C)c(C(=O)NC(CCCC(F)(F)C(F)(F)F)C(C)(C)O)n2c1 (racemic) [Example 190, rac-8-[(3-fluoropyridin-2-yl)methoxy]-2,6-dimethyl-N-(7,7,8,8,8-pentafluor-2-hydroxy-2-methyloctan-3-yl)imidazo[1,2-a]pyridine-3-carboxamide (racemate)]
15 | 3 | Cc1cc(OCc2ncccc2F)c2nc(C)c(C(=O)NCC(O)C(F)(F)F)n2c1 (racemic) [Example 197, rac-8-[(3-fluoropyridin-2-yl)methoxy]-2,6-dimethyl-N-(3,3,3-trifluoro-2-hydroxypropyl)imidazo[1,2-a]pyridine-3-carboxamide]
16 | 0.1 | Cc1nc2c(OCc3c(F)cccc3F)cccn2c1C(=O)NC(CO)CCC(O)C(F)(F)F (single isomer, unassigned) [Example 138, 8-[(2,6-Difluorobenzyl)oxy]-2-methyl-N-(6,6,6-trifluoro-1,5-dihydroxyhexan-2-yl)imidazo[1,2-a]-pyridine-3-carboxamide]
17 | 0.03 | Cc1cc(OCc2c(F)ccc(F)c2F)c2nc(C)c(C(=O)NC(CCC(F)(F)C(F)(F)F)C(C)(C)O)n2c1 (single isomer, unassigned; ent-2) [Example 198, ent-2,6-dimethyl-N-(6,6,7,7,7-pentafluoro-2-hydroxy-2-methylheptan-3-yl)-8-[(2,3,6-trifluorobenzyl)oxy]imidazo[1,2-a]pyridine-3-carboxamide]
18 | 0.1 | Cc1nc2c(OCc3c(F)cccc3F)cccn2c1C(=O)NC(CO)c1ccc(F)cc1 (single isomer, unassigned; ent-8) [Example 107, ent-8-[(2,6-Difluorobenzyl)oxy]-N-[1-(4-fluorophenyl)-2-hydroxyethyl]-2-methylimidazo[1,2-a]-pyridine-3-carboxamide]
19 | 0.1 | Cc1nc2c(OCc3c(F)cccc3F)cccn2c1C(=O)NCC(O)C(F)(F)F (single isomer, unassigned; ent-8) [Example 109, ent-8-[(2,6-Difluorobenzyl)oxy]-2-methyl-N-(3,3,3-trifluoro-2-hydroxypropyl)imidazo[1,2-a]-pyridine-3-carboxamide]
20 | 0.03 | Cc1nc2c(OCc3c(F)cccc3F)cccn2c1C(=O)NC(CO)CC(F)(F)F (single isomer, unassigned; ent-8) [Example 121, ent-8-[(2,6-Difluorobenzyl)oxy]-2-methyl-N-(4,4,4-trifluoro-1-hydroxybutan-2-yl)imidazo[1,2-a]-pyridine-3-carboxamide]
21 | 0.03 | Cc1nc2c(OCc3c(F)cccc3F)cccn2c1C(=O)NC(CO)CCC(F)(F)F (single isomer, unassigned; ent-8) [Example 122, ent-8-[(2,6-Difluorobenzyl)oxy]-2-methyl-N-(5,5,5-trifluoro-1-hydroxypentan-2-yl)imidazo[1,2-a]-pyridine-3-carboxamide]
